Measured values from PMC12040169 (PLOS Biology, 2025).

test: in vitro; settings: human, hela cells, % viability

Structure (SMILES)	viability at 28.5 h, 10 µM [%]
O=C(O)C1CCN(S(=O)(=O)c2ccc(F)cc2)CC1 [CBK100196]	102
Cc1ccc(C)c(N2CCN(S(=O)(=O)c3ccc(-c4ccccc4)cc3)CC2)c1 [CBK100692]	104
Cc1ccc(S(=O)(=O)N2CCCC(C(=O)O)C2)cc1 (stereo not shown) [CBK100948]	88.6
Cc1cc(C)c(-n2nnnc2SCc2ccc(F)cc2)c(C)c1 [CBK100994]	103
COc1cccc(C(=O)Nc2nc(-c3ccc(C(C)C)cc3)cs2)c1 [CBK101110]	87
COc1ccc(-n2c(C)c(C#N)c3cc(Br)c(O)c(Br)c32)cc1 [CBK101113]	91.6
CCOC(=O)c1cnn2c(C)cc(C)nc12 [CBK101119]	103
N#CC1CCCc2c1[nH]c1ccc(Cl)cc21 (stereo not shown) [CBK101438]	63.9
O=C(O)C1CCCCN1S(=O)(=O)c1ccc(Br)cc1 (stereo not shown) [CBK101789]	88.6
Fc1ccc(-n2nnnc2SCc2ccc(Cl)cc2)cc1Cl [CBK102075]	97.5
N#Cc1c(N)ncnc1-c1ccccc1 [CBK102172]	84.2
Cc1ccc(S(=O)(=O)Nc2nc(C)cs2)cc1 [CBK102326]	100
COc1c(Br)cc(/C=C2\SC(=O)NC2=O)cc1Br [CBK102455]	101
CCCc1[nH]nc(O)c1C(=O)c1c(F)cccc1Cl [CBK103524]	103
CCCC1=NN=C(c2cc(C(F)(F)F)ccc2C(F)(F)F)C1C(=O)OCC (stereo not shown) [CBK103527]	118
COc1cc(OC)nc(CC(=O)O)n1 [CBK103537]	104
CC[C@@H]1COCCN1C(=O)c1sc2ccccc2c1Cl [CBK103641]	90.3
CC(C)Nc1nc2ccccc2nc1SCCOc1ccccc1 [CBK103668]	89.8
CC(C)Nc1nc2ccccc2nc1SCCN(C)C [CBK103672]	115
c1ccc(OCCSc2cc(N3CCCC3)ncn2)cc1 [CBK103689]	113
FC(F)(F)c1ccnc(SCCc2ccccn2)c1 [CBK103709]	105
FC(F)(F)c1ccc(SCc2cccs2)nc1 [CBK103711]	96.3
FC(F)(F)c1ccc(SCc2ccccc2)nc1 [CBK103715]	89.7

Structure (SMILES)	viability at 28.5 h, 10 µM [%]
FC(F)(F)c1ccnc(SCCOc2ccccc2)n1 [CBK103721]	73.9
FC(F)(F)c1nc2ccccc2nc1SCCOc1ccccc1 [CBK103726]	102
CCN(CC)C(=O)CN1C(=O)C2(Nc3ccccc3C(=O)N2c2ccc(F)cc2)c2ccccc21 (stereo not shown) [CBK103751]	83.3
Cc1ccc(C2(O)CC3CCC(C2)N3C(=O)C2CCC2)cc1 (stereo not shown) [CBK103860]	99.2
CC(NC(=O)C(C)(C)C)c1nc(-c2cccnc2)n[nH]1 (stereo not shown) [CBK104007]	94.2
CC(NC(=O)C(C)(C)C)c1nc(-c2ccncc2)n[nH]1 (stereo not shown) [CBK104074]	91.9
Cn1c(=O)n(CC(=O)NC2CC2)c2cccnc21 [CBK104297]	98.7
c1cc(-c2n[nH]c(C3CCNCC3)n2)ccn1 [CBK104676C]	85.2
O=C1N=C(NC23CC4CC(CC(C4)C2)C3)OC1c1ccccc1 (stereo not shown) [CBK105263]	107
CC(C)Nc1nccnc1SCCN(C)C [CBK105290]	92.1
CC(=O)NCCSc1cc(NC(C)C)ncn1 [CBK105293]	96.8
CN(C)CCSc1cncc(N2CCCC2)n1 [CBK105294]	104
CN(C)CCSc1cc(N2CCCC2)ncn1 [CBK105295]	116
CC(=O)NCCSc1cc(C(F)(F)F)ccn1 [CBK105297]	107
CC(=O)NCCSc1ccc(C(F)(F)F)cn1 [CBK105298]	94.3
CC(=O)NCCSc1cccc(C(F)(F)F)n1 [CBK105299]	112
FC(F)(F)c1ccnc(SCCc2cnccn2)n1 [CBK105300]	88.6
CCc1[nH]nc(O)c1Cc1c(Cl)cccc1Cl [CBK105304]	115
COCc1[nH]nc(O)c1Cc1c(Cl)cccc1Cl [CBK105305]	91
CC(C)Nc1cc(SCCN(C)C)ncn1 [CBK105616]	109
CC(C)Nc1cc(SCCc2ccccn2)ncn1 [CBK105617]	97.8
CC(=O)NCCSc1nc2ccccc2nc1NC(C)C [CBK105618]	102
CC(=O)NCCSc1cc(N2CCCC2)ncn1 [CBK105621]	106

same assay, conditions: human, hela cells, % viability, bulk resorufin, single well

Structure (SMILES)	viability at 28.5 h, 10 µM [%]
c1cc(-c2ccc3c(c2)COC2(CCNCC2)O3)c2cc[nH]c2c1 [CBK093812]	108
CC(C)(C)OC(=O)N1CCC2(CC1)OCc1cc(-c3cccc(OCc4ccc(Cl)c(Cl)c4)c3)ccc1O2 [CBK105230]	86.6
CC(C)(C)OC(=O)N1CCC2(CC1)OCc1cc(-c3cccc(OCC(=O)Nc4ccccc4)c3)ccc1O2 [CBK105255]	99.6
